The text below walks through data of ChEMBL document CHEMBL1139870, “Structure-guided optimization of small molecules inhibiting human immunodeficiency virus 1 Tat association with the human coactivator p300/CREB binding protein-associated factor” (J Med Chem, 2007).

Structures are written as SMILES. The source made the active and inactive calls. The rule behind the calls is not given here.

For the test, the target named is Cyclin-dependent kinase inhibitor 1 (Homo sapiens) (UniProt P38936). Briefly: Effect on p53-induced p21 transcription in response to DNA damage at 5 uM.
Cyclin-dependent kinase inhibitor 1 (Homo sapiens), sequence (P38936 whole entry): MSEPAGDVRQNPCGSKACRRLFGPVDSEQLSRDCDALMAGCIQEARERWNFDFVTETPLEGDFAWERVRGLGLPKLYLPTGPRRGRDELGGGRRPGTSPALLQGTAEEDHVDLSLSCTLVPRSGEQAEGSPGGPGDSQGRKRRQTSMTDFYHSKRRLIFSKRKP

For `CC(Cl)c1ccc(NCCCN)c([N+](=O)[O-])c1` (configuration not stated), the result was inactive.

Regarding `Cc1ccc(NCCCN)c([N+](=O)[O-])c1`, the result was inactive.
